Assay [1] concerns Fusarium verticillioides. Description: Fungicidal activity against Fusarium verticilliodes isolate YZ01 in rice seeds harvested from bakane diseased plants assessed as number of seedlings abnormally elongated or exhibiting symptoms of damping-off at 6.25 ug/ml at 30 degC incubated for 72 hr measured after 3 days under greenhouse trials (reference value: 33.6%). The format is functional.

Assay [2] has as its system Fusarium verticillioides. Description: Fungicidal activity against Fusarium verticilliodes isolate JS09 in rice seeds harvested from bakane diseased plants assessed as number of seedlings abnormally elongated or exhibiting symptoms of damping-off at 8.33 ug/ml at 30 degC incubated for 72 hr measured after 3 days under greenhouse trials (reference value: 32.6%). The class given is functional.

Assay [3] concerns Fusarium verticillioides. Briefly: Fungicidal activity against Fusarium verticilliodes isolate N05 in rice seeds harvested from bakane diseased plants assessed as number of seedlings abnormally elongated or exhibiting symptoms of damping-off at 25 ug/ml at 30 degC incubated for 72 hr measured after 3 days under greenhouse trials (reference value: 6.2%). The class given is functional.

Assay [4] concerns Fusarium verticillioides. Description: Fungicidal activity against Fusarium verticilliodes isolate N01 in rice seeds harvested from bakane diseased plants assessed as number of seedlings abnormally elongated or exhibiting symptoms of damping-off at 25 ug/ml at 30 degC incubated for 72 hr measured after 3 days under greenhouse trials (reference value: 27.4%). The class given is functional.

Assay [5] relates to Fusarium verticillioides. Description: Fungicidal activity against Fusarium verticilliodes isolate JS04 in rice seeds harvested from bakane diseased plants assessed as number of seedlings abnormally elongated or exhibiting symptoms of damping-off at 25 ug/ml at 30 degC incubated for 72 hr measured after 3 days under greenhouse trials (reference value: 16.2%). The class given is functional.

In assay [6] the test system is Fusarium verticillioides. Briefly: Fungicidal activity against Fusarium verticilliodes isolate YZ03 in rice seeds harvested from bakane diseased plants assessed as number of seedlings abnormally elongated or exhibiting symptoms of damping-off at 25 ug/ml at 30 degC incubated for 72 hr measured after 3 days under greenhouse trials (reference value: 21.3%). The class given is functional.

Assay [7] has as its system Fusarium verticillioides. Description: Fungicidal activity against Fusarium verticilliodes isolate JS08 in rice seeds harvested from bakane diseased plants assessed as number of seedlings abnormally elongated or exhibiting symptoms of damping-off at 6.25 ug/ml at 30 degC incubated for 72 hr measured after 3 days under greenhouse trials (reference value: 13.0%). The format is functional.

Assay [8] deals with Fusarium verticillioides. Briefly: Fungicidal activity against Fusarium verticilliodes isolate N02 in rice seeds harvested from bakane diseased plants assessed as number of seedlings abnormally elongated or exhibiting symptoms of damping-off at 6.25 ug/ml at 30 degC incubated for 72 hr measured after 3 days under greenhouse trials (reference value: 41.2%). The format is functional.

In assay [9] the test system is Fusarium verticillioides. Description: Fungicidal activity against Fusarium verticilliodes isolate YZ26 in rice seeds harvested from bakane diseased plants assessed as number of seedlings abnormally elongated or exhibiting symptoms of damping-off at 6.25 ug/ml at 30 degC incubated for 72 hr measured after 3 days under greenhouse trials (reference value: 49.3%). The class given is functional.

Assay [10] concerns Fusarium verticillioides. Briefly: Fungicidal activity against Fusarium verticilliodes isolate YZ12 in rice seeds harvested from bakane diseased plants assessed as number of seedlings abnormally elongated or exhibiting symptoms of damping-off at 6.25 ug/ml at 30 degC incubated for 72 hr measured after 3 days under greenhouse trials (reference value: 45.8%). The format is functional.

Assay [11] concerns Fusarium verticillioides. Briefly: Fungicidal activity against Fusarium verticilliodes isolate YZ06 in rice seeds harvested from bakane diseased plants assessed as number of seedlings abnormally elongated or exhibiting symptoms of damping-off at 6.25 ug/ml at 30 degC incubated for 72 hr measured after 3 days under greenhouse trials (reference value: 45.3%). The class given is functional.

Assay [12] relates to Fusarium verticillioides. Description: Fungicidal activity against Fusarium verticilliodes isolate YZ08 in rice seeds harvested from bakane diseased plants assessed as number of seedlings abnormally elongated or exhibiting symptoms of damping-off at 25 ug/ml at 30 degC incubated for 72 hr measured after 3 days under greenhouse trials (reference value: 19.8%). The class given is functional.

Assay [13] has as its system Fusarium verticillioides. Briefly: Fungicidal activity against Fusarium verticilliodes isolate JS08 in rice seeds harvested from bakane diseased plants assessed as number of seedlings abnormally elongated or exhibiting symptoms of damping-off at 12.5 ug/ml at 30 degC incubated for 72 hr measured after 3 days under greenhouse trials (reference value: 13.0%). The format is functional.

Assay [14] has as its system Fusarium verticillioides. Description: Fungicidal activity against Fusarium verticilliodes isolate JS06 in rice seeds harvested from bakane diseased plants assessed as number of seedlings abnormally elongated or exhibiting symptoms of damping-off at 6.25 ug/ml at 30 degC incubated for 72 hr measured after 3 days under greenhouse trials (reference value: 25.2%). The class given is functional.

Assay [15] relates to Fusarium verticillioides. Briefly: Fungicidal activity against Fusarium verticilliodes isolate JS05 in rice seeds harvested from bakane diseased plants assessed as number of seedlings abnormally elongated or exhibiting symptoms of damping-off at 12.5 ug/ml at 30 degC incubated for 72 hr measured after 3 days under greenhouse trials (reference value: 36.4%). The format is functional.

Assay [16] has as its system Fusarium verticillioides. Description: Fungicidal activity against Fusarium verticilliodes isolate N03 in rice seeds harvested from bakane diseased plants assessed as number of seedlings abnormally elongated or exhibiting symptoms of damping-off at 12.5 ug/ml at 30 degC incubated for 72 hr measured after 3 days under greenhouse trials (reference value: 36.1%). The format is functional.

Assay [17] has as its system Fusarium verticillioides. Description: Fungicidal activity against Fusarium verticilliodes isolate YZ22 in rice seeds harvested from bakane diseased plants assessed as number of seedlings abnormally elongated or exhibiting symptoms of damping-off at 12.5 ug/ml at 30 degC incubated for 72 hr measured after 3 days under greenhouse trials (reference value: 22.5%). The class given is functional.

The subject of assay [18] is Fusarium verticillioides. Briefly: Fungicidal activity against Fusarium verticilliodes isolate JS04 in rice seeds harvested from bakane diseased plants assessed as number of seedlings abnormally elongated or exhibiting symptoms of damping-off at 8.33 ug/ml at 30 degC incubated for 72 hr measured after 3 days under greenhouse trials (reference value: 16.2%). The format is functional.

Assay [19] concerns Fusarium verticillioides. Description: Fungicidal activity against Fusarium verticilliodes isolate N02 in rice seeds harvested from bakane diseased plants assessed as number of seedlings abnormally elongated or exhibiting symptoms of damping-off at 8.33 ug/ml at 30 degC incubated for 72 hr measured after 3 days under greenhouse trials (reference value: 41.2%). The format is functional.

Assay [20] deals with Fusarium verticillioides. Briefly: Fungicidal activity against Fusarium verticilliodes isolate YZ07 in rice seeds harvested from bakane diseased plants assessed as number of seedlings abnormally elongated or exhibiting symptoms of damping-off at 12.5 ug/ml at 30 degC incubated for 72 hr measured after 3 days under greenhouse trials (reference value: 43.2%). The format is functional.

Assay [21] relates to Fusarium verticillioides. Description: Fungicidal activity against Fusarium verticilliodes assessed as mycelial growth inhibition at 25 degC after 3 to 5 days. The class given is functional, organism-based.
Assay [22] deals with Fusarium verticillioides. Description: Fungicidal activity against Fusarium verticilliodes isolate YZ07 in rice seeds harvested from bakane diseased plants assessed as number of seedlings abnormally elongated or exhibiting symptoms of damping-off at 8.33 ug/ml at 30 degC incubated for 72 hr measured after 3 days under greenhouse trials (reference value: 43.2%). The class given is functional.

Assay [23] concerns Fusarium verticillioides. Briefly: Fungicidal activity against Fusarium verticilliodes isolate JS02 in rice seeds harvested from bakane diseased plants assessed as number of seedlings abnormally elongated or exhibiting symptoms of damping-off at 6.25 ug/ml at 30 degC incubated for 72 hr measured after 3 days under greenhouse trials (reference value: 24.9%). The format is functional.

For assay [24], the system named is Fusarium verticillioides. Description: Fungicidal activity against Fusarium verticilliodes isolate N06 in rice seeds harvested from bakane diseased plants assessed as number of seedlings abnormally elongated or exhibiting symptoms of damping-off at 6.25 ug/ml at 30 degC incubated for 72 hr measured after 3 days under greenhouse trials (reference value: 9.6%). The format is functional.

Values after ≈ are worked out from the molar mass of the structure shown.

As to `CCOC(=O)/C(C#N)=C(/N)c1ccccc1`, the Activity in assay [1] stood at 3.7%; in assay [2], 1.2%; in [3], 0%; in assay [4], 0%; in assay [5], 0%; in assay [6], 0%. For the same compound, the Activity was 3.6% in [7]; 2.2% in assay [8]; 4.1% in assay [9]; 3.2% in [10]; 1% in assay [11]; 0% in assay [12]. The Activity in assay [13] is 0%; in assay [14] it was 1.7%; in assay [15] it was 0%; in [16], 0%; in assay [17], 0.5%; in [18], 1%. In addition, the Activity in assay [19] is listed as 0%; in assay [20] it was 0%; in assay [22] it was 0%; in assay [23] it was 2%; in assay [24], 0.8%. In [21], the 50% effective concentration (EC50) – broadly, the concentration that produces a half-maximal response – worked out at 0.316 µg/mL (≈ 1.46 µM).

(Values after ChEMBL document CHEMBL3044907, “Sensitivity of Fusarium verticillioides isolates from rice to a novel cyanoacrylate fungicide” (Crop Prot, 2012).)
